Bounds are passed on as bounds.

23 molecules from patent publication US11497752B2, “Compounds and uses thereof” (Foghorn Therapeutics Inc., priority 2018, dated 2022) can be followed below.

The target of one experiment is BRM (Homo sapiens, UniProt P51531). Put plainly: ATPase catalytic activity of BRM (ADP-Glo in vitro biochemical assay). The settings on record: for BRM Max % Inhibition: Table 6.
For another experiment, the target named is BRG-1 (Homo sapiens, UniProt P51532). Put plainly: ATPase catalytic activity of BRG-1 (ADP-Glo in vitro biochemical assay). As to conditions: for BRG1 Max % Inhibition: Table 6.
BRG-1, sequence (P51532 whole entry): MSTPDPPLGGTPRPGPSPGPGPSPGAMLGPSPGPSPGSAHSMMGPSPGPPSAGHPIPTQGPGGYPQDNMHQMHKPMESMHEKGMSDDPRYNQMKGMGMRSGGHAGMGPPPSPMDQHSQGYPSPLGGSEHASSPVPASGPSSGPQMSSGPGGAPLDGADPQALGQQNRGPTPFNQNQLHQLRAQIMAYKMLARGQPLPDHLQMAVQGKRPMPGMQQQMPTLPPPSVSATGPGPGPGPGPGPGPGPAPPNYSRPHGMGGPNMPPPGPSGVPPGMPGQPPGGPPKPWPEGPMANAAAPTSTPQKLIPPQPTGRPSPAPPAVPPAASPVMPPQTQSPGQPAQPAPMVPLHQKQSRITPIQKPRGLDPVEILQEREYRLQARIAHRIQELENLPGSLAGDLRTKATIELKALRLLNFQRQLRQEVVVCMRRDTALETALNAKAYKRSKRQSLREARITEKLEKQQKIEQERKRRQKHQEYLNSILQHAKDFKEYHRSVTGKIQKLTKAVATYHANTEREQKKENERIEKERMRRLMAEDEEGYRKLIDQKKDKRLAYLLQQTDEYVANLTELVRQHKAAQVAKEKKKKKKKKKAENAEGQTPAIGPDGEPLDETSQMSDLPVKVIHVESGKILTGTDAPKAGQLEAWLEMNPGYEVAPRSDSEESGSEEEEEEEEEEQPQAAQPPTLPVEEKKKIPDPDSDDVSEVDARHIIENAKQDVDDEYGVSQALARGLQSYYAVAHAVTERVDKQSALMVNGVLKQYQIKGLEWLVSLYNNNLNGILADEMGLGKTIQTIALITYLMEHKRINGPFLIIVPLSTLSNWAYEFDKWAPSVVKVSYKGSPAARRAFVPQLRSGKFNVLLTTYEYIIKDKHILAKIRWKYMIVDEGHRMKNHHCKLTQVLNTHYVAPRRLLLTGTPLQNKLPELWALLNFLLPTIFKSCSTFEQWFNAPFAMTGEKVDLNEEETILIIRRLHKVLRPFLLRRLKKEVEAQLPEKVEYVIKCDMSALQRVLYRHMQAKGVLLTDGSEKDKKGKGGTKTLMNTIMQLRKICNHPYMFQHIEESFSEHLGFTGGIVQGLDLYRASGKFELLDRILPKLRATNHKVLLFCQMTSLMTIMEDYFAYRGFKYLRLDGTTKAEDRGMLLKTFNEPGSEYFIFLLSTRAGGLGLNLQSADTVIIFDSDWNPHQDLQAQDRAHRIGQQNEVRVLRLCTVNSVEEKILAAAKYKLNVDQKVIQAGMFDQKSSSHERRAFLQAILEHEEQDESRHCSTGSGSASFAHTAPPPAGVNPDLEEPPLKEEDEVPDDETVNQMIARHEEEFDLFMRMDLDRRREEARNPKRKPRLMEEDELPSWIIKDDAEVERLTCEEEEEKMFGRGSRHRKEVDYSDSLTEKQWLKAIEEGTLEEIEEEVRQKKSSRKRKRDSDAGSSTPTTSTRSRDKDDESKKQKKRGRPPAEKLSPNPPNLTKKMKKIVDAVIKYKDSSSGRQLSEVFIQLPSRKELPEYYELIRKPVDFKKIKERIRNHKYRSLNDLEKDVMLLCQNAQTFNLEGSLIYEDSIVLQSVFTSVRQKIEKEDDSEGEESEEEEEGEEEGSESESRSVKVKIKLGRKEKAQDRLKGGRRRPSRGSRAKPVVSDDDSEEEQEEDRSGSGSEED

BRM, sequence (P51531 whole entry): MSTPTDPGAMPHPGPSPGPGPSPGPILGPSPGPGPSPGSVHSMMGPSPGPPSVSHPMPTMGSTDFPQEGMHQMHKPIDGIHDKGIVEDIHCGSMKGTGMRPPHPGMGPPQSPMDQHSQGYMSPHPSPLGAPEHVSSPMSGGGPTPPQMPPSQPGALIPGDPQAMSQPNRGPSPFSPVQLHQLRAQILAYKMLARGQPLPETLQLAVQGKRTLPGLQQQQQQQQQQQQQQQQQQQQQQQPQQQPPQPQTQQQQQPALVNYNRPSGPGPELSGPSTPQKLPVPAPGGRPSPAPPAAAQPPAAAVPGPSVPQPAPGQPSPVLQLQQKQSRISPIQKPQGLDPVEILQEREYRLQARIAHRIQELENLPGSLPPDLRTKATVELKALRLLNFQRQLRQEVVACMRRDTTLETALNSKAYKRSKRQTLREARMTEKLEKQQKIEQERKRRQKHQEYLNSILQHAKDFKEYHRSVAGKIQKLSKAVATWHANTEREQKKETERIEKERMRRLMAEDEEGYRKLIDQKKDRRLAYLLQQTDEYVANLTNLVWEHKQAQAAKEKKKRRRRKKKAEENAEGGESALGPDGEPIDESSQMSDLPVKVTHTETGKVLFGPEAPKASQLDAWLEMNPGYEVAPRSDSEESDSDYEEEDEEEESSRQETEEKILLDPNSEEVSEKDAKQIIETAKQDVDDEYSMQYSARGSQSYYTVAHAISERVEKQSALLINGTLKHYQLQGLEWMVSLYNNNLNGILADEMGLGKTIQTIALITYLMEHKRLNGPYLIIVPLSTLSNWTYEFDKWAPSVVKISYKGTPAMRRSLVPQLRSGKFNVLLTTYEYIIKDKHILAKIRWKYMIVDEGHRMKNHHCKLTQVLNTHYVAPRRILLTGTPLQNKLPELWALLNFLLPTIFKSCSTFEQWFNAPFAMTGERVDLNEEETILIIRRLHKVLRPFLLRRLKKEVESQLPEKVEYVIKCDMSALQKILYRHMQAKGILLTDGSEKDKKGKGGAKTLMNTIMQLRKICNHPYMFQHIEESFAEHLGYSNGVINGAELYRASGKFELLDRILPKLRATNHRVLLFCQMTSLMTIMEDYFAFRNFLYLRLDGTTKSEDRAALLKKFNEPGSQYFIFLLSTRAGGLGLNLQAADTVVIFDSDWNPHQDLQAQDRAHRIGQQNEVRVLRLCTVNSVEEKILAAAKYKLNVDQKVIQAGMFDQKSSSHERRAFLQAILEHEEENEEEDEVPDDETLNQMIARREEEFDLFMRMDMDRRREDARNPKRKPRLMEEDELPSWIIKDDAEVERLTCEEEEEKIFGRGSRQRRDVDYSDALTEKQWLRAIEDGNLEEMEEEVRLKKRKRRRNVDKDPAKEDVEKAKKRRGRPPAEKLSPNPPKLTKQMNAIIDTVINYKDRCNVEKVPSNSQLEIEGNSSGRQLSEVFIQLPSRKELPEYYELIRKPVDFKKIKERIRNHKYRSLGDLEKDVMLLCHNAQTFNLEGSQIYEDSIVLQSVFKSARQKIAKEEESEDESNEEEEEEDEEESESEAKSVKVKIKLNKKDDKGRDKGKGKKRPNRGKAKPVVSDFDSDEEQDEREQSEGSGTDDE

On to `Nc1ccc(C(=O)NCC(=O)Nc2nc(-c3cccc(-c4cccc(O)c4)c3)cs2)cc1` [Compound 141, 4-amino-N-(2-((4-(3′-hydroxy-[1,1′-biphenyl]-3-yl)thiazol-2-yl)amino)-2-oxoethyl)benzamide], for which, on BRM, the IC50 is less than 100 nM and the “BRM Max % Inhibition” value was greater than 95%. At BRG-1, the IC50 fell in the range of 100 to 1000 nM and the “BRG1 Max % Inhibition” value was greater than 95%.
For `Nc1ccc(C(=O)NCC(=O)Nc2nc(-c3cccc(-c4ccccc4F)c3)cs2)cc1` [Compound 142, 4-amino-N-(2-((4-(2′-fluoro-[1,1′-biphenyl]-3-yl)thiazol-2-yl)\amino)-2-oxoethyl)benzamide], at BRM, the IC50 lay in the range of 100 to 1000 nM and the “BRM Max % Inhibition” value was greater than 90%. Also, at BRG-1, the IC50 was in the range of 100 to 1000 nM and the “BRG1 Max % Inhibition” value is on record as greater than 90%.
In the case of `Cn1ccc2ccc(-c3csc(NC(=O)CNC(=O)c4ccc(N)cc4)n3)cc2c1=O` [Compound 143, 4-amino-N-(2-((4-(2-methyl-1-oxo-1,2-dihydroisoquinolin-7-yl)thiazol-2-yl)amino)-2-oxoethyl)benzamide], on BRM, the IC50 was less than 100 nM and the “BRM Max % Inhibition” value is listed as greater than 95%. Further, on BRG-1, the IC50 is less than 100 nM and the “BRG1 Max % Inhibition” value is recorded as greater than 95%.
Regarding `CNC(=O)c1cccc(-c2cccc(-c3csc(NC(=O)CNC(=O)c4ccc(N)cc4)n3)c2)c1` [Compound 144, 3-[3-[2-[[2-[(4-aminobenzoyl)amino]acetyl]amino]thiazol-4-yl]phenyl]-N-methyl-benzamide], at BRM, the IC50 lay within 100 to 1000 nM and the “BRM Max % Inhibition” value is greater than 95%. At BRG-1, the IC50 was in the range of 100 to 1000 nM and the “BRG1 Max % Inhibition” value is on record as greater than 95%.
As to `CN(C)Cc1ccc(-c2cccc(-c3csc(NC(=O)CNC(=O)c4ccc(N)cc4)n3)c2)cc1` [Compound 145, 4-amino-N-(2-((4-(4′-((dimethylamino)methyl)-[1,1′-biphenyl]-3-yl)thiazol-2-yl)amino)-2-oxoethyl)benzamide], on BRM, the IC50 fell in the range of 100 to 1000 nM and the “BRM Max % Inhibition” value is given as greater than 90%. Also, at BRG-1, the IC50 is 100 to 1000 nM and the “BRG1 Max % Inhibition” value is listed as greater than 90%.
`COc1cc(-c2cccc(-c3csc(NC(=O)CNC(=O)c4ccc(N)cc4)n3)c2)ccn1` [Compound 146, 4-amino-N-(2-((4-(3-(2-methoxypyridin-4-yl)phenyl)thiazol-2-yl)amino)-2-oxoethyl)benzamide]: on BRM, the IC50 was less than 100 nM and the “BRM Max % Inhibition” value was greater than 95%. At BRG-1, the IC50 was less than 100 nM and the “BRG1 Max % Inhibition” value is recorded as greater than 95%.
In the case of `Nc1ccc(C(=O)NCC(=O)Nc2nc(-c3ccc4cc[nH]c(=O)c4c3)cs2)cc1` [Compound 147, 4-amino-N-(2-oxo-2-((4-(1-oxo-1,2-dihydroisoquinolin-7-yl)thiazol-2-yl)amino)ethyl)benzamide], at BRM, the IC50 was less than 100 nM and the “BRM Max % Inhibition” value is listed as greater than 95%. Also, at BRG-1, the IC50 is less than 100 nM and the “BRG1 Max % Inhibition” value was greater than 95%.
Take `Cn1cnc2ccc(-c3csc(NC(=O)CNC(=O)c4ccc(N)cc4)n3)cc2c1=O` [Compound 148, 4-amino-N-(2-((4-(3-methyl-4-oxo-3,4-dihydroquinazolin-6-yl)thiazol-2-yl)amino)-2-oxoethyl)benzamide]: at BRM, the IC50 is less than 100 nM and the “BRM Max % Inhibition” value was greater than 95%. Besides, at BRG-1, the IC50 was less than 100 nM and the “BRG1 Max % Inhibition” value is reported as greater than 95%.
Consider `N#Cc1ccc(-c2cccc(-c3csc(NC(=O)CNC(=O)c4ccc(N)cc4)n3)c2)cc1` [Compound 149, 4-amino-N-(2-((4-(4′-cyano-[1,1′-biphenyl]-3-yl)thiazol-2-yl)amino)-2-oxoethyl)benzamide], for which, on BRM, the IC50 is less than 100 nM and the “BRM Max % Inhibition” value is listed as greater than 80%. Besides, on BRG-1, the IC50 is less than 100 nM and the “BRG1 Max % Inhibition” value is given as greater than 80%.
As for `Cn1ncc2ccc(-c3csc(NC(=O)CNC(=O)c4ccc(N)cc4)n3)cc2c1=O` [Compound 150, 4-amino-N-(2-((4-(3-methyl-4-oxo-3,4-dihydrophthalazin-6-yl)thiazol-2-yl)amino)-2-oxoethyl)benzamide], at BRM, the IC50 was less than 100 nM and the “BRM Max % Inhibition” value is given as greater than 95%. At BRG-1, the IC50 is less than 100 nM and the “BRG1 Max % Inhibition” value is greater than 90%.
`Nc1ccc(C(=O)NCC(=O)Nc2nc(-c3cccc(-c4ccn(CC(F)(F)F)n4)c3)cs2)cc1` [Compound 151, 4-amino-N-(2-oxo-2-((4-(3-(1-(2,2,2-trifluoroethyl)-1H-pyrazol-3-yl)phenyl)thiazol-2-yl)amino)ethyl)benzamide]: at BRM, the IC50 fell in the range of 100 to 1000 nM and the “BRM Max % Inhibition” value is greater than 80%. In addition, on BRG-1, the IC50 lay within 100 to 1000 nM and the “BRG1 Max % Inhibition” value is reported as greater than 80%.
As for `Nc1ccc(C(=O)NCC(=O)Nc2nc(-c3cccc(-c4cccc(F)c4)c3)cs2)cc1` [Compound 152, 4-amino-N-(2-((4-(3′-fluoro-[1,1′-biphenyl]-3-yl)thiazol-2-yl)amino)-2-oxoethyl)benzamide], at BRM, the IC50 lay in the range of 100 to 1000 nM and the “BRM Max % Inhibition” value is reported as greater than 90%. Also, at BRG-1, the IC50 is 100 to 1000 nM and the “BRG1 Max % Inhibition” value is greater than 80%.
`Nc1ccc(C(=O)NCC(=O)Nc2nc(-c3cccc(-c4ccc(CO)cc4)c3)cs2)cc1` [Compound 153, 4-amino-N-(2-((4-(4′-(hydroxymethyl)-[1,1′-biphenyl]-3-yl)thiazol-2-yl)amino)-2-oxoethyl)benzamide]: on BRM, the IC50 is less than 100 nM and the “BRM Max % Inhibition” value is given as greater than 90%. At BRG-1, the IC50 was less than 100 nM and the “BRG1 Max % Inhibition” value is on record as greater than 80%.
Take `Nc1ccc(C(=O)NCC(=O)Nc2nc(-c3cccc(-c4cccc(CO)c4)c3)cs2)cc1` [Compound 154, 4-amino-N-(2-((4-(3′-(hydroxymethyl)-[1,1′-biphenyl]-3-yl)thiazol-2-yl)amino)-2-oxoethyl)benzamide]: at BRM, the IC50 is less than 100 nM and the “BRM Max % Inhibition” value is recorded as greater than 95%. Besides, on BRG-1, the IC50 was less than 100 nM and the “BRG1 Max % Inhibition” value is on record as greater than 95%.
`Nc1ccc(C(=O)NCC(=O)Nc2nc(-c3cccc(-c4cc[n+]([O-])cc4)c3)cs2)cc1` [Compound 156, 4-(3-(2-(2-(4-aminobenzamido)acetamido)thiazol-4-yl)phenyl)pyridine 1-oxide]: on BRM, the IC50 lay in the range of 100 to 1000 nM and the “BRM Max % Inhibition” value is given as greater than 95%. In addition, at BRG-1, the IC50 fell in the range of 100 to 1000 nM and the “BRG1 Max % Inhibition” value is on record as greater than 90%.
As for `N#Cc1cccc(-c2cccc(-c3csc(NC(=O)CNC(=O)c4ccc(N)cc4)n3)c2)c1` [Compound 157, 4-amino-N-(2-((4-(3′-cyano-[1,1′-biphenyl]-3-yl)thiazol-2-yl)amino)-2-oxoethyl)benzamide], at BRM, the half-maximal inhibitory concentration (IC50) is less than 100 nM and the “BRM Max % Inhibition” value is greater than 95%. Also, on BRG-1, the IC50 is less than 100 nM and the “BRG1 Max % Inhibition” value is reported as greater than 90%.
`NCC1CC=C(c2cccc(-c3csc(NC(=O)CNC(=O)c4ccc(N)cc4)n3)c2)CC1` (centres unmarked) [Compound 158, 4-amino-N-(2-((4-(4′-(aminomethyl)-2′,3′,4′,5′-tetrahydro-[1,1′-biphenyl]-3-yl)thiazol-2-yl)amino)-2-oxoethyl)benzamide]: on BRM, the IC50 lay within 100 to 1000 nM and the “BRM Max % Inhibition” value is recorded as greater than 90%. On BRG-1, the IC50 is 100 to 1000 nM and the “BRG1 Max % Inhibition” value is listed as greater than 95%.
Consider `Nc1ccc(C(=O)NCC(=O)Nc2nc(-c3cccc(-c4ccnc(N5CCNCC5)c4)c3)cs2)cc1` [Compound 159, 4-amino-N-(2-oxo-2-((4-(3-(2-(piperazin-1-yl)pyridin-4-yl)phenyl)thiazol-2-yl)amino)ethyl)benzamide], for which, on BRM, the IC50 lay within 100 to 1000 nM and the “BRM Max % Inhibition” value is greater than 90%. Also, on BRG-1, the IC50 is 100 to 1000 nM and the “BRG1 Max % Inhibition” value is on record as greater than 95%.
Consider `NCCNc1cc(-c2cccc(-c3csc(NC(=O)CNC(=O)c4ccc(N)cc4)n3)c2)ccn1` [Compound 160, 4-amino-N-(2-((4-(3-(2-((2-aminoethyl)amino)pyridin-4-yl)phenyl)thiazol-2-yl)amino)-2-oxoethyl)benzamide], for which, at BRM, the IC50 was 100 to 1000 nM and the “BRM Max % Inhibition” value is recorded as greater than 95%. For the same molecule, at BRG-1, the 50% inhibitory concentration (IC50) was 100 to 1000 nM and the “BRG1 Max % Inhibition” value was >95%,.
As to `Nc1ccc(C(=O)NCC(=O)Nc2nc(-c3cccc(-c4ccn(C5CCOCC5)n4)c3)cs2)cc1` [Compound 162, 4-amino-N-(2-oxo-2-((4-(3-(1-(tetrahydro-2H-pyran-4-yl)-1H-pyrazol-3-yl)phenyl)thiazol-2-yl)amino)ethyl)benzamide], on BRM, the IC50 is less than 100 nM and the “BRM Max % Inhibition” value is recorded as greater than 95%. For the same molecule, on BRG-1, the IC50 is less than 100 nM and the “BRG1 Max % Inhibition” value was greater than 95%.
Turning to `NCCOc1cc(-c2cccc(-c3csc(NC(=O)CNC(=O)c4ccc(N)cc4)n3)c2)ccn1` [Compound 163, 4-amino-N-(2-((4-(3-(2-(2-aminoethoxy)pyridin-4-yl)phenyl)thiazol-2-yl)amino)-2-oxoethyl)benzamide], at BRM, the 50% inhibitory concentration (IC50) was less than 100 nM and the “BRM Max % Inhibition” value is listed as greater than 95%. At BRG-1, the IC50 was 100 to 1000 nM and the “BRG1 Max % Inhibition” value is on record as greater than 95%.
Take `NCc1cc(-c2cccc(-c3csc(NC(=O)CNC(=O)c4ccc(N)cc4)n3)c2)ccn1` [Compound 164, 4-amino-N-(2-((4-(3-(2-(aminomethyl)pyridin-4-yl)phenyl)thiazol-2-yl)amino)-2-oxoethyl)benzamide]: at BRM, the IC50 is less than 100 nM and the “BRM Max % Inhibition” value was greater than 95%. In addition, on BRG-1, the IC50 is less than 100 nM and the “BRG1 Max % Inhibition” value is greater than 95%.
Consider `Nc1ccc(C(=O)NCC(=O)Nc2nc(-c3cccc(-c4ccnc(CO)c4)c3)cs2)cc1` [Compound 165, 4-amino-N-(2-((4-(3-(2-(hydroxymethyl)pyridin-4-yl)phenyl)thiazol-2-yl)amino)-2-oxoethyl)benzamide], for which, on BRM, the IC50 is less than 100 nM and the “BRM Max % Inhibition” value is greater than 95%. On BRG-1, the IC50 is less than 100 nM and the “BRG1 Max % Inhibition” value was greater than 95%.
